Format in all cases: cell-based
For experiment [1], the system named is human melanoma cell line WM-266-4. The experiment is described as follows: In vitro pro-apoptotic activity (PARP cleavage western blot) in WM-266-4, example 2. Conditions: 100 nM, positive control, WM-266-4, example 2. The protocol: The characterization of the interaction between compound (I) and compound (II) was studied using western blotting method measuring the expression of cleaved PARP which allows to investigate apoptosis by detecting the cleavage of the PARP protein.
(§1) The human melanoma WM-266-4 cell line was purchased at ATCC (Ref number CRL-1676 Batch 3272826). The WM-266-4 cells were cultured in RPMI1640 medium supplemented with 10% FBS and 2 mM L-Glutamine.
They were diluted following a 10 fold step dilution in DMSO in order to obtain a 1 mM solution. Then each solution at 10 mM and 1 mM was diluted 50-fold in culture medium containing 10% serum before being added onto cells with a 20-fold dilution factor to reach final concentrations of 10,000 nM and 1,000 nM. The final DMSO concentration was 0.1% in controls and in all treated wells.
WM-266-4 cells were seeded into 6-well microplates at 1 000 000 cells per well, in complete culture medium and incubated at 37° C., 5% CO2, overnight.
At the end of cell treatment period, adherent cells as well as cells in the cell culture supernatant were lysed for the preparation of the proteins. Cells were lysed in a lysis buffer containing Hepes 50 mM, NaCl 150 mM, Glycerol 10%, Triton 1%, pH=7.5, adding extemporaneously a cocktail of protease and phosphatase inhibitors diluted 100 fold. Protein concentrations in each sample were determined using microBCA technique according to manufacturer's instructions. Western blotting was performed loading 20 μg of proteins in each gel well, and according to the operating procedure. […] After western blotting revelation according to the operating procedure instructions, luminescence was read using FujiFilm (Ray Test) apparatus.
This instrument measures the total signal of luminescence obtained on Fujifilm machine (AU) for each selected band. Then, it subtracts the background value (BG) proportional to the size of the selected band or Area. The background is calculated from a band taken on the specific background of the western blot, to obtain the specific signal or (AU−BG) for each band. The calculation of the fold induction is performed for each treatment with compound or combination of compounds using the following formula:
Fold Induction=((AU−BG)t/(AU−BG)st)*100

Experiment [2] concerns human melanoma cell line A2058. The experiment is described as follows: In vitro pro-apoptotic activity (PARP cleavage western blot) in A2058, example 4. The protocol: (§2) The characterization of the interaction between compound (I) and compound (II) was studied using western blotting method which allows investigating apoptosis by detecting the cleavage of the PARP protein.
(§3) The human melanoma A2058 cell line was purchased at ATCC (Ref number CRL-11147 Batch 5074651). The A2058 cells were cultured in DMEM High glucose medium supplemented with 10% FBS and 2 mM L-Glutamine.
(§4) Cell treatment, Western Blot experiment and calculation of apoptosis fold induction were performed according to the material and method described in example 2.

Experiment [3] relates to human melanoma cell line WM-266-4. The experiment in a line: In vitro pro-apoptotic activity (PARP cleavage) in WM-266-4 in a concentration-dependent manner, example 5. Conditions: single agent 100 nM, WM-266-4, example 5. As to the method: as §2, §1
They were diluted following two 10-fold step dilution in DMSO in order to obtain a 1 mM solution and a 0.1 mM solution Then each solution at 10 mM, 1 mM or 0.1 mM was diluted 50-fold in culture medium containing 10% serum before being added onto cells with a 20-fold dilution factor to reach final concentrations of 10,000 nM, 1,000 nM and 100 nM. The final DMSO concentration was 0.1% in controls and in all treated wells.
as §4

Experiment [4] concerns human melanoma cell line A2058. The experiment is described as follows: In vitro pro-apoptotic activity (PARP cleavage) in A2058 in a concentration-dependent manner, example 6. Conditions: single agent 100 nM, A2058, example 6. The protocol:
as §2, §3, §4

On to `CC(=O)O[C@@]12CO[C@@H]1C[C@H](O)[C@@]1(C)C(=O)[C@H](O)C3=C(C)[C@@H](OC(=O)[C@H](O)[C@@H](NC(=O)OC(C)(C)C)c4ccccc4)C[C@@](O)([C@@H](OC(=O)c4ccccc4)[C@H]21)C3(C)C` [Taxotere], for which the “PARP cleavage signal (AU-BG)” value in experiment [1] is 2054900 AU-BG; in experiment [2] (100 nM, positive control, A2058, example 4), 3563893 AU-BG; in experiment [3], 399272 AU-BG; in experiment [4], 14448019 AU-BG. In addition, the fold induction at 0.1 µM came out at 2.88 in experiment [1] (Homo sapiens); 1.66 in experiment [2] (Homo sapiens, A2058, read-out: Fold induction of PARP cleavage); 1.56 in experiment [3] (Homo sapiens); 6.79 in experiment [4] (Homo sapiens).
